Measurements: patent publication US9572787B2, “Inhibition of renal fibrosis” (Rhode Island Hospital, priority 2011, dated 2017)
Like-named read-outs stand apart in the source and are kept apart here.

Columns and labels:
[1] = test system: obstructive kidney (UUO); test: UUO obstructive nephropathy model, single dose of suramin immediately after ureteral ligation; type: in vivo, mouse
Description: UUO and Remnant Kidney Models and Suramin Treatment. The UUO model was established in male C57 back mice that weighed 20-25 g (Jackson Laboratory, Bar Harbor, Me.) as described in our previous study. Briefly, the abdominal cavity was exposed via a midline incision and the left ureter was isolated and ligated. The contralateral kidney was used as controls. […] Six mice were used in each group.
Immunoblot Analysis. Immunoblot analysis of NRK-49F cells and tissue samples were conducted as described previously. The densitometry analysis of immunoblot results was conducted by using NIH Image software (National Institutes of Health, Bethesda, Md.).
Immunofluorescent and Immunohistochemical Staining Immunofluorescent and immunohistochemical staining was performed according to the procedure described in our previous studies. For assessment of renal fibrosis, masson trichrome staining was performed according to the protocol provided by the manufacture (Sigma, St. Louis, Mo.). The collagen tissue area (blue color) was quantitatively measured using Image Pro-Plus software (Media-Cybernetics, Silver Spring, Md., USA) by drawing a line around the perimeter of positive staining area, and the average ratio to each microscopic field (400×) was calculated and graphed.
Quantitative Real-Time PCR. The procedure for quantitative qRT-PCR and the primers used for all measurements have been described previously. Briefly, total RNA from mouse kidney tissue was extracted using RNeasy Kit (QIAGEN, Valencia, Calif.). RNA (1 μg) was reverse transcribed using the AMV First Strand cDNA synthesis kit (Roche Diagnostics Corporation, Indianapolis, Ind.) and random oligodeoxynucleotide primers. Then, real time qRT-PCR amplifications were performed. Relative mRNA abundance was determined from the nanogram ratios of specific mRNA to 18S ribosomal RNA measured in the same samples, and fold change was calculated relative to the group of sham-operated mice with vehicle treatment. Template-free reactions for each pair of primers were also included as controls.

[2] = test system: obstructed kidney (UUO); test: UUO model, delayed administration of suramin at day 3 of obstruction; type: in vivo, mouse
Description: Animals and the UUO Model. The UUO model used was described above. The abdominal cavity was exposed via a midline incision and the left ureter was isolated and ligated. Sham-operated animal received the same surgical procedures but without ureter ligation. To establish the time course of renal fibrogenesis in this model, four groups of mice (n=5) were killed at days 1, 3, 7, and 14, respectively, after left ureter ligation. […] Control mice were injected with the equal volume of vehicle (0.9% saline). At the end of the experiments, mice were killed and the kidneys were removed. One part of the kidneys was fixed in 10% phosphate-buffered formalin for histological studies. Another part was snap-frozen in liquid nitrogen and stored at −80° C. for protein extractions.

[3] = in the body, cited from earlier work
[4] = 1 mg/kg i.p. single dose, day 7
[5] = 5 mg/kg i.p. single dose, day 7
[6] = 10 mg/kg i.p. single dose, day 7
[7] = 20 mg/kg i.p. single dose, 21 days after UUO injury
[8] = 20 mg/kg at day 3, kidney at day 10

Cc1ccc(C(=O)Nc2ccc(S(=O)(=O)O)c3cc(S(=O)(=O)O)cc(S(=O)(=O)O)c23)cc1NC(=O)c1cccc(NC(=O)Nc2cccc(C(=O)Nc3cc(C(=O)Nc4ccc(S(=O)(=O)O)c5cc(S(=O)(=O)O)cc(S(=O)(=O)O)c45)ccc3C)c2)c1 [Suramin]
fibronectin expression in kidney [1, 4]: slight reduction
α-SMA expression in kidney [1, 4]: slight reduction
fibronectin expression in kidney [1, 5]: further inhibition
α-SMA expression in kidney [1, 5]: further inhibition
collagen 1 expression in kidney ([1]; 5 mg/kg single dose, day 7): observed effect
fibronectin expression in kidney [1, 6]: complete blockade
α-SMA expression in kidney [1, 6]: significant, but incomplete, suppression
collagen 1 expression in kidney ([1]; 10 mg/kg single dose, day 7): greater inhibition
suppression of fibronectin expression in kidney [1, 7]: approximately 50%
suppression of α-SMA expression in kidney [1, 7]: approximately 50%
EGF receptor phosphorylation ([1]; 20 mg/kg single dose, day 7): abolished
ICAM-1 mRNA expression ([1]; 20 mg/kg single dose, day 7): decreased
IL-1β mRNA expression ([1]; 20 mg/kg single dose, day 7): decreased
PDGF receptor phosphorylation ([1]; 20 mg/kg single dose, day 7): abolished
TGF-β1 mRNA expression reduced to (real-time PCR) ([1]; 20 mg/kg single dose, day 7): 45%
TGF-β1 type I receptor mRNA expression ([1]; 20 mg/kg single dose, day 7): suppressed its basal expression
TGF-β type II receptor mRNA expression reduced to (real-time PCR) ([1]; 20 mg/kg single dose, day 7): 94%
TNF-α mRNA expression ([1]; 20 mg/kg single dose, day 7): decreased
UUO injury-induced phosphorylation of Smad2 ([1]; 20 mg/kg single dose, day 7): abolished
UUO injury-induced phosphorylation of Smad3 ([1]; 20 mg/kg single dose, day 7): abolished
collagen 1 expression in kidney ([1]; 20 mg/kg single dose, day 7): reduced its expression to the basal level
expression level of total ERK1/2 ([1]; 20 mg/kg single dose, day 7): did not affect
expression level of total STAT3 ([1]; 20 mg/kg single dose, day 7): did not affect
expression of total EGF receptor ([1]; 20 mg/kg single dose, day 7): did not have an inhibitory effect
expression of total PDGF receptor ([1]; 20 mg/kg single dose, day 7): did not have an inhibitory effect
expression of total Smad2 ([1]; 20 mg/kg single dose, day 7): not affected
expression of total Smad3 ([1]; 20 mg/kg single dose, day 7): not affected
leukocyte infiltration (naphthol-AS-D-chloroacetate esterase staining) ([1]; 20 mg/kg single dose, day 7): reduced leukocyte infiltration to basal levels
morphological lesions and interstitial fibrosis (masson trichrome staining) ([1]; 20 mg/kg single dose, day 7): obvious attenuation
phosphorylation of ERK1/2 ([1]; 20 mg/kg single dose, day 7): abolished
phosphorylation of STAT3 ([1]; 20 mg/kg single dose, day 7): abolished
collagen 1 expression in kidney ([1]; 20 mg/kg single dose, day 21): partially suppressed
α-SMA expression in kidney ([1]; 20 mg/kg vs 10 mg/kg i.p. single dose, day 7): did not further reduce
effective doses of suramin ([1]; applicant's UUO and remnant kidney studies): 5 to 10 mg/kg
EGFR phosphorylation [2, 8]: significant reduction
PDGFR phosphorylation [2, 8]: significant reduction
Smad3 phosphorylation [2, 8]: largely blocked
expression of total EGFR [2, 8]: not affected
expression of total PDGFR [2, 8]: not affected
phosphorylation of ERK1/2 [2, 8]: not further increased
phosphorylation of STAT3 [2, 8]: not further increased
total protein level of ERK1/2 [2, 8]: did not alter
total protein level of STAT3 [2, 8]: did not alter
α-SMA expression ([2]; 20 mg/kg at day 3, both 7- and 14-day treatment groups): reduced
Masson trichrome-positive areas ([2]; 20 mg/kg i.p. single dose at day 3, kidney at day 10): reduced on day 10 to a level similar to that in the kidney at 3 days of obstruction
half life [3]: 21 days
half life ([3]; listed as suramin): at least 21 days
